“Also recorded” adds a separate entry of the source.
Experiments:
Format in all cases: cell-based, human
WT1 = WT1 expression by RT-PCR after treatment of breast cancer cell lines with 5-aza-dC or TSA
Text: (§1) Cell lines and finite life span cultures Cell lines were obtained from ATCC (Rockville, Md.) and grown according to conditions specified. Also utilized were three independent cultures of finite life span human mammary epithelial cells (HMEC): 16637 (Clonetics, Walkersville, Md.) and 1-26, 3-14 (kindly provided by Dr. Steve Ethier, Univ. Michigan, Ann Arbor, Mich.).
RT-PCR for WT1 mRNA Methods for RNA extraction and RT-PCR are known to those of skill in the art. The sequences of the primers used are as follows: for amplifying the 555 bp region surrounding WT1 exon 5, 5′-[…]-3′ (sense, nucleotides 882-901; Q ID NO:1) and 5′-[…]-3′ (antisense, nucleotides 1416-1437; SEQ ID NO:2); for amplifying the 382 bp region surrounding the KTS insert, 5′-[…]-3′ (sense, nucleotides 1320-1339; SEQ ID NO:3) and 5′-[…]-3′ (antisense, nucleotides 1685-1702; SEQ ID NO:4). Amplification was performed using a hot-start protocol: samples were heated to 94° C. for 4 minutes and then cooled to 80° C. prior to the addition of Taq polymerase (RedTaq, Sigma, St. Louis, Mo.). Samples were then heated to 94° C. for 30 seconds followed by either 50° C. for 30 seconds (for the KTS primers) or 56° C. for 30 seconds (for the Exon 5 primers) and then 72° C. for 1 minute for 40 cycles. PCR products were resolved by electrophoresis, using a 2% agarose gel for the exon 5-splice variants and a 12% polyacrylamide gel to resolve the KTS insert variants. Co-amplification of the ribosomal RNA 36B4 was performed as an internal control using the following primers: 5′-[…]-3′ (sense; SEQ ID NO:5) and 5′-[…]-3′ (antisense; SEQ ID NO:6).

14.3.3σ = 14.3.3σ expression in the same treated samples; settings: same samples: MDA-MB-231 and MCF-7 cells treated with 5-aza-deoxyC or TSA
Text: as §1

cyclin D2 promoter = experiment: Methylation-specific PCR of the cyclin D2 promoter after 5-aza-dC; settings: MDAMB231 and MCF7 cells; 0.75 μM 5-aza-dC
Experimental: Methylation-specific PCR (MSP). One μg genomic DNA or the 50 ul extract of microdissected cells was treated with sodium bisulfite as described in Herman J G, (1996), and was analyzed by MSP using primer sets located within the CpG-rich island in the cyclin D2 promoter. Primers specific for unmethylated DNA were 5′-[…]-3′ (sense; SEQ ID NO:21) and 5′-[…]-3′ (antisense; SEQ ID NO:22) and yielded a 223 base-pairs PCR product. Primers specific for methylated DNA were 5′-[…]-3′ (sense; SEQ ID NO:23) and 5′-[…]-3′ (antisense; SEQ ID NO:24) and yielded a 276 base-pair PCR product. The PCR conditions were as follows: 1 cycle of 95° C. for 5 min; 35 cycles of 95° C. for 30s, 55° C. for 30s and 72° C. for 45s; and 1 cycle of 72° C. for 5 min.

cyclin D2 = experiment: Cyclin D2 mRNA re-expression by RT-PCR after 5-aza-dC or TSA; settings: MDAMB231 and MCF7 cells
Experimental: RT-PCR. […] PCR was performed using the primers [NT] (sense; SEQ ID NO:15) and [NT] […] (sense; SEQ ID NO: 17) and [NT] […] (sense; SEQ ID NO:19) and [NT] antisense; SEQ ID NO:20).

σ CpG island = experiment: Methylation-specific PCR of the σ CpG island after 5-aza-dC; settings: Hs578t and MDA-MB-435 cells; 0.75 μM 5-aza-dC for 3 days
Experimental: Methylation-specific PCR (MSP). One μg genomic DNA was treated with sodium bisulfite as described in (Herman, et al. (1996) Proc. Natl. Acad. Sci. USA 93, 9821-9826), and was analyzed by MSP using a primer set that covered CG dinucleotide numbers 3, 4, 8 and 9. Primers specific for methylated DNA: 5′-[…]-3′ (sense; SEQ ID NO:37) and 5′-[…]-3′ (antisense; SEQ ID NO:38), and primers specific for unmethylated DNA: 5′-[…]-3′ (sense; SEQ ID NO:39) and 5′-[…]-3′(antisense; SEQ ID NO:40) yielded a 105-107 bp PCR product. The PCR conditions were as follows: 1 cycle of 95° C. for 5 min; 31 cycles of 95° C. for 45s, 56° C. for 30s and 72° C. for 30s; and 1 cycle of 72° C. for 4 min.
(§2) Cells were seeded at a density of 2×10^6 cells per 100-mm plate.

σ = σ gene expression by RT-PCR after 5-aza-dC; settings: Hs578t and MDA-MB-435 cells; 0.75 μM 5-aza-dC for 3 days
Experimental: as §2
RT-PCR. […] PCR was performed using the σ-specific primers 5′-[…]-3′ (SEQ ID NO:41) and 5′-[…]-3′ (SEQ ID NO:42) using buffer conditions described herein. The PCR conditions were: 1 cycle of 95° C. for 5 min; 30 cycles of 60° C. for 45s, 72° C. for 45s and 95° C. for 45s. PCR samples were resolved by electrophoresis in a 2% agarose gel.

MDA-MB-231 cells = experiment: Growth inhibition (%) by cell counting with Trypan Blue
Text: (§3) Cell cultures Human epithelial mammary cells (HEMC) from reduction mammoplasty including three mortal strains, 184, 48R and 172R, and two immortal strains, 184A1 and 184B5, were obtained and cultured according to the protocols designed by Dr Martha Stampfer (see the HMEC Homepage, http://www.lbl.gov/*mrgs/index.htlm) using Clonetics (Walkersville, Md., USA) reagents. Human breast cancer cell lines were maintained in Dulbecco's modified Eagle's medium (GIBCO) (Hs578t,MCF-7, MDA-MB-231 and T47D) or IMEM medium (Biofluids) (MDA-MB-435, MDA-MB-468, ZR751) with 5% fetal calf serum (FCS). For drug treatments, exponentially growing cells were seeded in 10 cm^2 plates at a density of 36105 cells/plate or in 6-well plates at 16105 cells/well. Cells were allowed to attach overnight before the addition of the appropriate concentration of 5-Aza-2′ deoxycytidine (5-Aza-CdR) (Sigma), Trichostatin A (TSA) (Sigma) or RA(Sigma). When reduction of retinoids was required, cells were treated in either medium with 0.5% FCS or charcoal-dextran stripped FCS (Hyclone). At the indicated time points, both attached and detached cells were harvested, counted with Trypan Blue (Life Technologies) and processed for DNA or RNA extraction. 5-Aza-CdR was dissolved in 0.45% NaCl containing 10 mM sodium phosphate (pH 6.8). Trichostatin A and all-trans-retinoic acid (RA) (Sigma) were reconstituted in absolute ethanol (solvent).

HOXA5 = HOXA5 mRNA re-expression by RT-PCR after 5-aza-dC; settings: MDA-MB-231 cells; 0.75 μM 5-aza-dC
Experimental: RT-PCR was performed using primers: 5′ […]-3′ (sense; SEQ ID NO:75) and 5′[…]-3′ (antisense; SEQ ID NO:76).

MCF-7 cells = experiment: Pon A induction of HOXA5 in MCF-7 clones with ecdysone-inducible HOXA5: p53 pathway and apoptosis
Text: Immunoblot Analysis: Proteins were visualized by Western analysis and 10% SDS-PAGE. The primary antibodies [anti-HOXA5 (HOXA5-2, BABCO), anti-p53 (AB-6, Oncogene Science), or anti-β-actin (AC-15, Sigma), anti-p21 (15091A, Pharmingen), anti-Mdm2 (65101A, Pharmingen), anti-PARP (AB-2, Oncogene Sciences), anti-dynein (Zymed) and anti- Na+, K+-ATPase (Ed Benz, Johns Hopkins) (also used as loading controls, with actin)] were used at 1:1000 dilution.
To test this possibility, breast cancer cells, MCF-7 and ZR75.1, which harbor wildtype p53 genes, were transfected with the full length HOXA5 and the ΔHOXA5 (homeodomain-deleted) expression plasmids and tested for colony-forming ability. No surviving colonies were obtained from HOXA5-transfected cells whereas those transfected with ΔHOXA5 and the vector control generated colonies with equal efficiency. To obtain stable cultures that could express HOXA5, clones of MCF-7 cells were generated in which the HOXA5 gene was placed under the control of an ecdysone-inducible promoter. Within 3 hours after induction of HOXA5 expression by the ecdysone analog, Ponasterone A (Pon A), the levels of p53 mRNA rose by 2-fold.

RAR β = RAR β expression by RT-PCR after drug treatment
Experimental: Human breast cancer cell lines were maintained in Dulbecco's modified Eagle's medium (GIBCO) (Hs578t,MCF-7, MDA-MB-231 and T47D) or IMEM medium (Biofluids) (MDA-MB-435, MDA-MB-468, ZR751) with 5% fetal calf serum (FCS). For drug treatments, exponentially growing cells were seeded in 10 cm^2 plates at a density of 36105 cells/plate or in 6-well plates at 16105 cells/well. […] When reduction of retinoids was required, cells were treated in either medium with 0.5% FCS or charcoal-dextran stripped FCS (Hyclone). At the indicated time points, both attached and detached cells were harvested, counted with Trypan Blue (Life Technologies) and processed for DNA or RNA extraction. 5-Aza-CdR was dissolved in 0.45% NaCl containing 10 mM sodium phosphate (pH 6.8). Trichostatin A and all-trans-retinoic acid (RA) (Sigma) were reconstituted in absolute ethanol (solvent).

RAR β2 promoter = experiment: Methylation of RAR β2 promoter CpG island (Southern blotting, MSP) after drug treatment; settings: MCF7 cells; in the presence of RA
breast cancer cell lines = experiment: Growth inhibition of a panel of breast cancer cell lines by RA; settings: T47D, MDA-MB-435, MCF7 and ZR75-1 cell lines; 1 μM RA, 48 h
Text: as §3, with “Trichostatin A and all-trans-retinoic acid (RA) (Sigma) were reconstituted in absolute ethanol (solvent).” left out

[1] = 0.4 mM 5-Aza-CdR and/or 1 μM RA
[2] = 2 days, 100 ng/ml TSA and/or RA

Question: With `Nc1ncn([C@H]2C[C@H](O)[C@@H](CO)O2)c(=O)n1` [5-aza-dC, 5-aza-2′-deoxycytidine] as the molecule, how does the WT1 expression (WT1; MCF-7 cells, 0.75 μM 5-aza-dC, listed as 5-aza-deoxyC) read?
Answer: not seen; also recorded: did not cause WT1 expression

Question: What about the WT1 expression (WT1; MDA-MB-231 cells, 0.75 μM 5-aza-dC, listed as 5-aza-deoxyC) of the same molecule?
Answer: results in re-expression of the gene; also recorded: resulted in WT1 expression

Question: And the “expression of 14.3.3σ” value (14.3.3σ)?
Answer: restored expression

Question: And the “cyclin D2 promoter methylation (MSP)” value (cyclin D2 promoter)?
Answer: partially demethylated

Question: And the “cyclin D2 mRNA expression (RT-PCR)” value (cyclin D2; 0.75 μM 5-aza-dC)?
Answer: restored

Question: What about the “methylation of the σ CpG rich region (MSP)” value (σ CpG island) of the same molecule?
Answer: demethylation

Question: What about the “σ gene expression (RT-PCR)” value (σ) of the same molecule?
Answer: reactivation of gene expression

Question: And the growth inhibition (MDA-MB-231 cells; [1])?
Answer: 63%

Question: And the “expression of HOXA5 mRNA” value (HOXA5)?
Answer: re-initiated

Question: Which DNA laddering (MCF-7 cells) does the source give for `CC(C)CC[C@@H](O)[C@](C)(O)[C@H]1CC[C@@]2(O)C3=CC(=O)[C@@H]4C[C@@H](O)[C@@H](O)C[C@]4(C)[C@H]3CC[C@]12C` [Pon A, Ponasterone A] here?
Answer: observed

Question: What about the “levels of Bax protein” value (MCF-7 cells) of the same molecule?
Answer: not accompanied by a detectable change

Question: What about the “p53, p21, Mdm2 and HOXA5 induction (Western blotting)” value (MCF-7 cells) of the same molecule?
Answer: 2-5 fold

Question: And the “cells with micronucleus formation, membrane blebbing and ghost cell features” value (MCF-7 cells; acridine orange staining)?
Answer: 70%

Question: What about the cell death (MCF-7 cells; after 48 hours) of the same molecule?
Answer: 80-90%

Question: And the “poly (ADP-ribose) polymerase cleavage” value (MCF-7 cells; by 12 hours)?
Answer: underwent cleavage

Question: And the cell morphology (MCF-7 cells; by 24 hours)?
Answer: cell shrinkage

Question: And the “levels of p53 mRNA” value (MCF-7 cells; within 3 hours after induction)?
Answer: 2 fold

Question: Which results are given for `CC1=C(/C=C/C(C)=C/C=C/C(C)=C/C(=O)O)C(C)(C)CCC1` [RA, all-trans-retinoic acid]?
Answer: RAR β expression (RAR β; T47D, MDA-MB-435, MCF7 and ZR75-1 cell lines, 1 μM RA, 48 h): induction of RAR β expression; methylation at RAR β2 (RAR β2 promoter): persistence of methylation; growth inhibition (MDA-MB-231 cells; [1]): 52%; growth inhibition (MDA-MB-231 cells; [2]): 52%; growth inhibition (breast cancer cell lines): growth inhibition

Question: What does the source list for `CC(/C=C/C(=O)NO)=C\[C@@H](C)C(=O)c1ccc(N(C)C)cc1` [TSA, Trichostatin A]?
Answer: WT1 expression (WT1; MDA-MB-231 and MCF-7 cells (either cell line), 100 ng/ml TSA): no effect; also recorded: nor did TSA restore expression; expression of 14.3.3σ (14.3.3σ): restored expression; cyclin D2 mRNA expression (RT-PCR) (cyclin D2; 100 ng/ml TSA): re-expression; RAR β mRNA expression (RT-PCR) (RAR β; MDA-MB-231 cells, 2 days, 100 ng/ml TSA with 1 μM RA): can reactivate RAR β expression; growth inhibition (MDA-MB-231 cells; [2]): 77%

Reference: US6756200B2, “Aberrantly methylated genes as markers of breast malignancy” (The Johns Hopkins University School of Medicine, priority 2001, dated 2004)
